row,SMILES,melting point [°C]
1,CN(C)C=Cc1nc2ccc(F)cc2c(=O)n1-c1ccccc1Cl,210 to 211
2,COC(=O)Nc1nc2cc(C(=NO)c3ccc(F)cc3)ccc2[nH]1,> 315
3,CCOC(=O)c1cc2ccc(CBr)cc2o1,95 to 102
4,CC(C)(C)C(=O)Nc1nc(O)c2c(C#C[Si](C)(C)C)c[nH]c2n1,> 300
5,O=C(Nc1cc(Cl)cc(Cl)c1)c1cccc(Cl)c1O,255 to 256
6,O=C(O)c1ccc(Nc2noc(C(F)(F)F)n2)cc1,244 to 246
7,CCCC(=O)c1c(O)oc(=O)c(C(=O)CCC)c1O,80 to 82
8,COc1ccc(N2CCN(CC[C@H]3CC[C@H](NC(N)=O)CC3)CC2)c(Cl)c1Cl,195 to 198
9,COC(=O)c1c(C(F)F)nc(C(F)(F)F)c(N=COCC2CO2)c1CC(C)C (stereo not given),41 to 43
10,CCOC(=O)c1cn(-c2ncnn2C)c2nc(Cl)c(F)cc2c1=O,256 to 263
11,CCOC(=O)NN=C(c1ccc(Cl)cc1)c1ccc(OP(=S)(OCC)OCC)cc1,106
12,COC(=O)Cn1c(=O)n(C)c(=O)n(-c2cc(F)ccc2[N+](=O)[O-])c1=O,122
13,CC(=O)c1cc(-c2c(C)c(NC(=O)CC(C)(C)C)c(C)c3c2OCC3c2ccc(C(C)C)cc2)cs1 (stereo not given),133 to 134
14,Cc1cc2c(cc1C1=NNC(=O)CC1)OCC(=O)N2C,211 to 213
15,CC(=O)Nc1nn(C)c2c1sc1cc(C)ccc12,253 to 255
16,COC(=O)CCCc1cc2cc(Cl)ccc2n1S(=O)(=O)c1ccc2nc(N)oc2c1,238
17,O=C(Nc1ccc(-n2nc(C(F)(F)F)cc2C(F)(F)F)cc1)c1ccc(Br)cc1Cl,164 to 167
18,Cc1cc(-c2c3c(cc4ccc(O)cc24)-c2ccc(O)cc2CO3)ccc1F,185 to 188
19,Cc1ncn(-c2cc(C(Cl)(Cl)Cl)c3cc(C(Cl)(Cl)Cl)ccc3n2)n1,169 to 170
20,Cc1cc(N)nc(Br)c1,99
21,CC1=NC(NC(=O)Nc2cccc(C)c2)C(=O)N(CC(=O)C(C)(C)C)c2c(C)cccc21 (stereo not given),180 to 181
22,CC1NC(=O)COC1=O (stereo not given),139 to 141
23,CO/C=C(/C(=O)OC)c1ccccc1C=CCO,78 to 80
24,O=[N+]([O-])c1ccc(Cl)c(C2OCCO2)c1,78 to 81
25,CCOC(=O)C(=CNc1ccc(CC)nc1)C(=O)OCC,55 to 57
26,O=C(c1ccc(-c2cnc3c(c2)N(Cc2c(F)ccc(F)c2Cl)CCN3)cc1)N1CCC(N2CCCC2)CC1,93 to 95

row,SMILES,melting point [°C]
1,CCS(=O)(=O)c1cc(C(=O)NCC(Cl)CCCCl)c(OC)cc1N (stereo not given),109
2,CSc1ccc(-c2cc(C(F)F)nn2-c2ccc(S(N)(=O)=O)cc2)cc1,157 to 158
3,CC(C)c1cc(-c2ccc3c(c2)OCO3)nc(Cl)c1C#N,171 to 173
4,COc1ccc(C2CCN(c3c(C)c(C)c4c(c3C)C(O)(c3ccc(C)cc3)C(C)(C)O4)CC2)cc1OC (stereo not given),133 to 135
5,CON(O)C(=O)c1ccccc1C(F)(F)F,101 to 103
6,C=C(C)C(=O)Oc1c(C(C)c2cc(C(C)(C)CC)cc(C(C)(C)CC)c2O)cc(C(C)(C)CC)cc1C(C)(C)CC (stereo not given),103 to 105
7,CCCc1c(OCCCC(=O)O)ccc(C(C)=O)c1O,130 to 133
8,Nc1cccc(C(=O)NCC23CC4CC(CC(C4)C2)C3)c1Cl,154
9,N#Cc1ccc(NC(=O)CCCC(=O)O)cc1,200 to 201
10,C[C@@H](n1cnc2cc(NC(=O)C(F)(F)F)c(F)cc2c1=O)[C@](O)(Cn1cncn1)c1ccc(F)cc1F,130 to 132
11,CC(C)(C=NO)C(O)(CCc1ccc(F)cc1)Cn1cncn1 (stereo not given),101 to 103
12,CS(=O)(=O)c1cccc(NC(=O)c2cnn3c(C(F)F)cc(-c4ccc(C(F)(F)F)c(OCC(F)(F)F)c4)nc23)c1,207
13,Cc1cc(SC2=C(O)CC(CCc3ccc(N)cc3)(CCc3ccc(N)cc3)OC2=O)c(C(C)(C)C)cc1CO,144 to 146
14,CN1c2ccccc2S(=O)(=O)c2cc(C=Cc3ccc(-c4ccc(C=Cc5ccc6c(c5)S(=O)(=O)c5ccccc5N6C)cc4)cc3)ccc21,360
15,CC1CCCCN1c1cc(F)cc(C(=O)Nc2ccc(OCCN3CCOCC3)c3ccccc23)c1 (stereo not given),75 to 78
16,O=C1C(=O)c2ccccc2C2=C1SCC1(CCN(Cc3ccc(F)cc3F)CC1)O2,104 to 107
17,CCOCCOc1cc(C(O)C#Cc2ccc(C(=O)O)cc2)cc2c1C(C)(C)CCC2(C)C (stereo not given),158
18,COc1cc(Nc2c(C#N)cnc3cc(Br)ccc23)c(Cl)cc1F,200 to 202
19,Cc1ccc2c(Sc3ccc(Cl)c(Cl)c3)c(C(=O)O)[nH]c2c1,252 to 255
20,CN(C)C=C(C#N)C(=O)Nc1ccccc1Cl,122 to 123
21,Cn1c(C(F)(F)F)cc(=O)n(-c2c(F)cc(Cl)c3c2OC(C)(C)C3O)c1=O (stereo not given),82 to 83
22,Fc1ccc(C#Cc2ccc(F)cc2)cc1,95 to 96
23,CC(C)c1cccc(C(C)C)c1NC(=O)NCC1(c2ccc(N(C)C)cc2)O[C@H](C)[C@@H](C)O1,165 to 167
24,COC(=O)C=Cc1c(C(=O)OC)[nH]c2c(C)ccc(C)c12,135 to 136
25,C=CCOC(=O)C1=C(C)Nc2nc(N)nc(N)c2C1c1cccc([N+](=O)[O-])c1 (stereo not given),188
26,COC(=O)CCC(C)C1CCC2C3CCC4CC(N)CCC4(C)C3CC(=O)C12C (stereo not given),129 to 130

# Second part, the molecule after the results:
row,melting point [°C],SMILES
1,132,N#CCc1cccc2c(-c3ccc(Cl)cc3)nccc12
2,131 to 133,O=c1oc(-c2ccccc2)cc(O)c1SCc1cccc(Oc2ccccc2)c1
3,191,O=C(c1cc(=O)c2c(OCCOc3ccccc3)cccc2o1)N1CCN(CCO)CC1
4,264 to 266,C[C@@H]1NC(=O)OC1(c1ccccc1)c1ccccc1
5,118,CC(C)(C)OC(=O)Nc1ccc(-c2cccc(F)c2F)cc1NC(=O)CC(=O)c1cccc(C#N)c1
6,160,O=C(O)CCc1cc2cc(Cl)ccc2n1S(=O)(=O)c1ccc2ccccc2c1
7,180 to 182,O=C1Nc2ccccc2OC1c1ccc(Cl)cc1 (stereo not given)
8,150 to 151,CC1CCN(Cc2ccc(CCC(=O)Nc3ccc(-c4ccc(Cl)cc4)cc3)cc2)CC1
9,89.5 to 91,COC(=O)c1ccccc1-c1cc(-c2ccc(Cl)cc2)no1
10,165,O=C1NC(=O)C(Cc2ccc(OCCn3ncc4ccccc4c3=O)cc2)S1 (stereo not given)
11,46 to 48,OC(CCCCCCCCOCc1ccccc1)c1ccc(OCc2ccccc2)c(OCc2ccccc2)c1 (stereo not given)
12,108,COC(=O)CCCc1cc2nc(Cl)ccc2n1S(=O)(=O)c1ccc(Cl)cc1
13,190 to 196,COc1ccc(-c2ccc3nccn3c2)cc1-c1ccc2nonc2c1
14,187 to 188,NC(=O)c1ncn2c(=O)n(Cc3ccccc3)nnc12
15,143 to 145,c1ccc(COc2ccc3c(ccn3Nc3ccncc3)c2)cc1
16,72 to 75,c1ccc(CN2CCOC(c3ccccc3)(c3ccccc3)CC2)cc1
17,164 to 165,CN1CC(CCN(C)c2ccccc2)Oc2ncccc2C1=S (stereo not given)
18,195,OC1CSC(Oc2ccc(-c3cc4ccccc4o3)nc2)C(O)C1O (stereo not given)
19,111 to 113,Cc1ccc2nc(-c3ccccc3)nc(Cl)c2c1
20,204 to 205,N#Cc1ccc(C=Nc2c3c(nc4ccccc24)CCCC3)cc1
21,110 to 112,COC(=O)c1ccccc1-c1n[nH]c(-c2cccc(C(F)(F)F)c2)n1
22,202 to 204,Cc1ccc2c(c1)N(CC(=O)c1ccco1)C(=O)C(NC(=O)Nc1cccc(C(=O)O)c1)CN2C(=O)C(C)(C)C (stereo not given)

row,melting point [°C],SMILES
1,225 to 226,CC(=O)N1CCC(CNCc2ccc(C=CC(=O)Nc3ccc(-c4ccc(Cl)cc4)cc3)cc2)CC1
2,166 to 169,C#CCOc1cccc(-n2c(-c3ccccc3)cc(=O)c(C)c2-c2ccccc2)c1
3,251 to 254,Cc1ccc(N2C(=O)c3ccccc3C2=O)c(O)c1
4,88 to 90,CC(C)C[C@H](NC(=O)COc1ccc(Cl)cc1)C(=O)N[C@@H](C(C)C)[C@@H](O)c1c(-c2ccccc2)c1=O
5,153 to 154,N=C(Nc1ccccc1-c1ccccc1)N1CCOCC1
6,108 to 110,O=C1CCCc2c1ccn2S(=O)(=O)c1ccccc1
7,203 to 206,O=c1c(-c2ccccc2Cl)cc2cnc(NC3C4CN(Cc5ccccc5)CC43)nc2n1C1CCNC1 (stereo not given)
8,144,CC1(O)CC(=O)OC(CCc2ccc(OCc3ccc(F)cc3)cc2)C1 (stereo not given)
9,145 to 146,CNC(=O)Cc1cccc(C(=O)c2ccccc2)c1N
10,137 to 138,CC(C)n1nc(-c2c(-c3ccccc3)nn3cccc(OCCN(C)C)c23)ccc1=O
11,87 to 94,CN1CCN(c2cccc3ccc(Nc4ccccc4[N+](=O)[O-])cc23)CC1
12,132,Clc1ccc(CCC(Cn2ccnc2)Sc2c(Cl)cc(Cl)cc2Cl)cc1 (stereo not given)
13,> 200,O=C1N(Cc2ccccn2)c2cccc(-c3cccnc3)c2C12COc1cc3c(cc12)CCO3 (stereo not given)
14,118 to 120,OCCOc1ccc2c(c1)oc1cc(Cl)ccc12
15,85 to 87,CCOC(=O)[C@H](Cc1ccc([N+](=O)[O-])cc1I)NC(=O)OCc1ccccc1
16,110 to 112,CCCCOc1ccc(NC(=O)c2ccccc2C(c2ccc(O)cc2)c2ccc(O)cc2)cc1
17,166 to 167,COCOc1cc(Br)ccc1-c1cc(-c2cccc([N+](=O)[O-])c2)c(C#N)c(NC(=O)c2cccs2)n1
18,67 to 70,COc1ccccc1NC1CN([C@H]2CC[C@@H](c3c[nH]c4ccccc43)CC2)C1
19,267 to 268,O=C(O)c1ccc(C=C2CCc3cc(OCCn4ccnc4)ccc3C2=O)cc1
20,91 to 93,CCCCCCCCCCCCCCOc1ccc(C(=O)NCc2ccccn2)cc1
21,163 to 164,NNc1ccc(C(=O)c2ccccc2)cc1[N+](=O)[O-]
